From patent US11479538B2, “Tetrazolone-substituted dihydropyridinone MGAT2 inhibitors” (BRISTOL-MYERS SQUIBB COMPANY, priority 2014, dated 2022) come the findings set out here.

The assay concerns the target human MGAT-2 (Homo sapiens (Human), UniProt Q3SYC2). The experiment in a line: MGAT LCMS Assay. Type of assay: biochemical. Conditions: human recombinant MGAT-2 membranes expressed in Sf9 cells; LC/MS readout of diolein; read-out: h-MGAT LCMS IC50. On the procedure:
The MGAT enzyme reactions were performed in Corning FALCON® 96-well polypropylene plates, in a total volume of 60 μL of 50 mM potassium phosphate buffer pH 7.4, containing a final concentration of 100 μM 2-oleoylglycerol, 15 μM oleoyl-coenzyme A and […] human or mouse MGAT-2 or […] rat recombinant MGAT-2 membranes expressed in Sf9 cells. Assay plates were run through a fully automated robotics system and shaken for 5 seconds every minute for a total 10 minutes. The reactions were then quenched with 120 μL of ice cold methanol containing 1 μg/mL 1,2-distearoyl-rac-glycerol as the internal standard. Plates were shaken for 2 minutes and spun down to remove protein precipitation. After the spin, samples were transferred to LC/MS compatible PCR plates. For LC/MS analysis, a ThermoFisher Surveyor pump, utilizing a Waters SYMMETRY® C8, 50×2.1 mm column, was used for the chromatography of enzyme products. The buffer system consists of 0.1% formic acid in water with a mobile phase consisting 0.1% formic acid in methanol. The shallow gradient is 90-100% mobile phase in 0.2 min with a total run time of 2.3 min. […]
The exemplified Examples disclosed below were tested in the MGAT2 in vitro assays described above and were found having MGAT2 inhibitory activity. Table 1 below lists human MGAT2 IC50 values measured for the following examples.

Usually IC50 stands for the point on the concentration scale where inhibition reaches its midpoint.

Sequence of human MGAT-2 (Q3SYC2 whole entry): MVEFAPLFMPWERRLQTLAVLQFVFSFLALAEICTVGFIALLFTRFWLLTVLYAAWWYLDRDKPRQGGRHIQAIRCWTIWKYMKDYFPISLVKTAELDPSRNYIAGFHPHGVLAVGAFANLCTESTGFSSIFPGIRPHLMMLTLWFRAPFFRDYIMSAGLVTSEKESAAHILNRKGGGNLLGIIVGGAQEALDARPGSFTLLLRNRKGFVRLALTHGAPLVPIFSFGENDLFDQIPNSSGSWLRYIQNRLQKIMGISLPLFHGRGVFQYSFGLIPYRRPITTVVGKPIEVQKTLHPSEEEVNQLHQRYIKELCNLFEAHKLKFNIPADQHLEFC

Take `O=C1N[C@@](c2ccc(OCCCC(F)(F)F)cc2F)(C(F)(F)F)CC(c2ncc(C3CC3)s2)=C1n1nn[nH]c1=O` [Example 22, (S)-4-(5-cyclopropylthiazol-2-yl)-6-(2-fluoro-4-(4,4,4-trifluorobutoxy)phenyl)-3-(5-oxo-4,5-dihydro-1H-tetrazol-1-yl)-6-(trifluoromethyl)-5,6-dihydropyridin-2(1H)-one]: the IC50 amounted to 2 nM.
